Measured values from PMC11488110 (Theranostics, 2024).

Experiment: Metabolic stability assay in liver microsomes
Format: in vitro ADME, dog
Conditions: 1 μM, 30 min
Protocol: The metabolic stability assay was performed by incubation of human and selected animal liver microsomes (dog, rat, and mouse) with the test compound at a final concentration of 1 μM, in the presence of 0.5 mg/ml microsomal protein and NADPH-regeneration system, in a total volume of 100 μL phosphate buffer 100 mM (pH 7.4) at 37 °C. The incubation was started by introducing the NADPH-regeneration system and terminated by adding 40 μL of ice-cold acetonitrile at 0- and 30 min. Precipitated proteins were removed by centrifugation at 10,000 g and 4 °C for 5 min. Aliquots of the supernatant were injected onto an LC-MS/MS system. Incubations terminated prior to addition of the NADPH-regeneration system (time point, 0 min) were used as standards, defined as 100%. Percent of the parent compound remaining was calculated by comparing peak areas.
Ta b l e S2 . CYP inhibition, microsomal stability, and hERG in hibition of 5a .
CYP inhibitiona Microsomal stabilityb
( % of c ont rol ac ti vit y) (% of remaining compound) hERG inhibitionc (IC50, μ M) […]
aCytochrome P450 (CYP450) enzyme activity was measured by incubating CYP450 enzyme isotype-specific substrates and liver microsomes in the presence of the test compound (10 μM) for 15 min. […]

With Cc1cc(SCc2[se]c(-c3ccc(C(F)(F)F)cc3)nc2C)ccc1OCC(=O)O [Compound 5a, {2-Methyl-4-[4-methyl-2-(4-trifluoromethyl-phenyl)-selenazol-5-yl-methylsulfanyl]-phenoxy}-acetic acid] the “Microsomal stability, Dog (% of remaining compound)” value was 91.3 % of remaining compound.
